These results are taken from article PMC6332076, “Plasma Pharmacokinetics of Polyphenols in a Traditional Japanese Medicine, Jumihaidokuto, Which Suppresses Propionibacterium acnes-Induced Dermatitis in Rats” (Molecules, 2015).

A short description of series [1]: Antioxidant assay, hydrogen peroxide-dependent oxidation (OxiSelect In vitro ROS/RNS Assay, DCFH-DiOxyQ). The series is classed as biochemical. The settings on record: for activity against ROS (in words): hydrogen peroxide-dependent oxidation; for Antioxidant activity, IC50, Hydrogen Peroxide: tested at 0.1-30 μmol/L, N = 3, n.d. = not detectable at the maximal concentration (30 μmol/L). As for the experimental part:
Figure 4 Concentration dependency of flavonoid glucuronides and comparison with aglycones. Glucuronides and aglycones of flavonoid were assayed at serially-diluted concentrations to assess on hydrogen peroxide-dependent oxidation. Test samples were incubated with hydrogen peroxide for 5 min, followed by mixing with a probe of oxidant activity. After 15 min incubation, the hydrogen peroxide-dependent fluorescent intensity was measured. Data are shown as mean ± S.E. of triplicates. To assess ROS, OxiSelect In vitro ROS/RNS Assay kits ([…], Minneapolis, MN, USA) were used according to manufacturer’s instructions. Briefly, a test sample was incubated with 2.5 μmol/L of hydrogen peroxide for 5 min, and dichlorodihydrofluorescin DiOxyQ (DCFH-DiOxyQ) was added as a probe of oxidant activity. After 15 min incubation, the hydrogen peroxide-dependent fluorescent intensity was measured using a fluorescent plate reader (Infinite M200; Tecan, Wako Pure Chemical Industries). Percentage of inhibition of ROS was calculated using the following equation: [1 − (sample RFU^a − base RFU^b)/(control RFU^c − base RFU^b)] × 100 (1) where RFU is a relative fluorescent unit of reaction solution, a is RFU of DCFH-DiOxyQ with hydrogen peroxide and sample, b is RFU of DCFH-DiOxyQ alone, and c is RFU of DCFH-DiOxyQ with hydrogen peroxide.

Series [2] is described as follows: Antioxidant assay, nitric oxide generated from NOR3 (Griess reagent). The series is classed as biochemical. The settings on record: for activity against nitric oxide (in words): nitric oxide reaction. As for the experimental part: To quantify nitric oxide, a test sample was incubated at 37 °C for 150 min in PBS supplemented with 30 μmol/L of (±)-(E)-4-ethyl-2-[(E)-hydroxyimino]-5-nitro-3-hexenamide (NOR3). Nitric oxide generated naturally from NOR3, was measured using the Griess reagent (1% sulfanilamide, 0.1% N-(1-naphthyl) ethylenediamine dihydrochlride in 5% H3PO4). Briefly, 100 μL of the reacted solution was incubated for 5 min with 100 μL Griess reagent. Optical densities at 540 nm were then measured.
(In general: Nitrite, measured by Griess reagent, commonly stands in for NO production.)

The nature of another series: in vivo. Further details: species or system rat. The conditions noted are these: for AUC(0-t) / Cmax / half-life / tmax: oral JHT 2 g/kg, non-compartmental; for appearance / detection in plasma: rat plasma after oral JHT 2 g/kg. As for the experimental part:
The higher dose than that in the pharmacological test was used to detect more constituents. […] In some experiments to deconjugate glucuronidated polyphenols, the samples were incubated with 75 mmol/L phosphate buffer containing 200 units/mL β-glucuronidase from Escherichia coli (Sigma-Aldrich) for 2 h at 37 °C.
For quantification of liquiritin, liquiritigenin, isoliquiritin, isoliquiritigeniin, hesperidin, hesperetin, castalagin, and all flavonoid glucuronides, 25–60 µL of standard solution and 25 µL of internal standard solution were added to 200–300 µL of plasma samples, followed by mixing well. Methanol (750–800 µL) was added to the solutions, followed by mixing and centrifugation (7000 g, 5 min). The supernatants were collected and dried at 40 °C under a stream of nitrogen gas. Then, the dried residue was dissolved in 50–100 μL of the HPLC mobile phase of each analytical method, and a 1–20 μL portion was injected into the LC-MS/MS systems. For quantification of genistein, luteolin, quercetin, (+)-catechin, (−)-epicatechin gallate, (±)-gallocatechin, Gallic acid, 4-O-methylgallic acid, hamamelitannin, 1,2,3,6-tetra-O-galloyl glucose, 1,2,3,4,6-penta-O-galloyl glucose, eugeniin, and 1-desgalloyl eugeniin, 200 μL of plasma samples were used. The amounts were measured using the same procedure, as described previously, except ethyl acetate (500 μL) and 2% acetic acid (100 μL), instead of methanol, were used concurrently as an extraction solution.
Plasma pharmacokinetic data were analyzed by non-compartmental modeling using Phoenix WinNonlin (version 6.3, Certara L.P., St. Louis, MO, USA) to determine various pharmacokinetic constants including the maximum concentration (Cmax), time to maximum concentration (tmax), apparent elimination half-life (t1/2), and area under the plasma concentration-time curve from time zero to the last observation (AUC0–last). The t1/2 was […] loge2/ke, where ke is the terminal elimination (at least three data points on the descending linear limb) rate constant.

The subject of series [3] is Propionibacterium acnes (P. acnes)-induced dermatitis. The series is described as follows: P. acnes-induced acute dermatitis, ear thickness. The series is classed as in vivo, rat. The conditions noted are these: rats, intradermal P. acnes 0.14 mg/ear; JHT 0.5 g/kg p.o. 1 h before and 6 h after injection; PDN 10 mg/kg p.o.; P. acnes + DW group 181%; N = 5. As for the experimental part:
Figure 1 Suppression of Propionibacterium acnes (P. acnes)-induced dermatitis in rats by jumihaidokuto (JHT) administration. Dermatitis was induced in rats by injection of P. acnes (0.14 mg/50 μL/ear) into the pinna. The ear thickness was measured at 0 and 24 h after the injection. JHT suspended in distilled water (DW) was administered orally at a dose of 0.5 g/10 mL/kg at 1 h before and 6 h after the injection. Prednisolone (PDN, 10 mg/10 mL/kg) was used as a reference drug. Data represent the relative ear thickness, which was standardized against the previous values before the injection. N = 5. ^## p < 0.01 vs. saline + DW group (Student’s t-test), ** p < 0.01 significant vs. P. acnes + DW group (Dunnett’s test). […]
P. acnes-induced dermatitis was induced using the procedure described previously with a minor modification. […] The ear thickness was measured using a dial thickness gauge micrometer (Ozaki MFG Co., Tokyo, Japan) at 0 and 24 h after the injection. All data on the increase in ear thickness were expressed as a percentage of the previous value in each individual rat, and as the mean ± S.E. Statistical significance was evaluated by one-way analysis of variance, followed by the Dunnett’s multiple comparisons or unpaired Student’s t-test. […]

Where [4] appears, read: rat plasma, 6 h after oral JHT 2 g/kg.

With `COc1cc(C(=O)O)cc(O)c1O` [3-O-methylgallic acid], the “activity against ROS (in words)” value in series [1] was “strong activity”. Moreover, the “activity against nitric oxide (in words)” value in series [2] is recorded as “not nitric oxide”.
In general, AUC(0-t) refers to the area under the concentration-time curve up to a stated or last time point. In general, Cmax refers to the maximum level reached in the sampled fluid or tissue. For orientation: half-life means how long it takes for the measured level to halve. High values mean slow loss, low ones fast loss. On to `COc1c(O)cc(C(=O)O)cc1O` [4-O-Methylgallic acid, 4-O-methylgallic acid], for which, in “in vivo” (rat plasma, 1 h after oral JHT 2 g/kg), the “plasma concentration after β-glucuronidase treatment” value was “unchanged”. In “in vivo” (rat plasma), the AUC(0-t) stood at 32.7 ng·h/mL, the highest level (Cmax) was 6.65 ng/mL, the half-life was 1.62 h and the tmax was 2.00 H. In addition, in the series “in vivo” (rat, plasma, po, 2 g/kg, rat plasma, 1 h after oral JHT 2 g/kg, read-out: plasma concentration before β-glucuronidase treatment), the concentration at 1 h came to 5.57 ng/mL. For the same compound, the “Antioxidant activity, IC50, Hydrogen Peroxide” value in series [1] is on record as “not detectable even at the highest concentration”. Besides, the “Antioxidant activity, IC50, Nitric Oxide” value in series [2] (tested at 0.1-30 μmol/L, N = 3, n.d. = not detectable at the maximal concentration (30 μmol/L)) amounted to 3.59 µg/mL.
On to `COc1c2c(cc3oc(CO)cc(=O)c13)O[C@H](C(C)(C)O)C2` [Cimifugin, cimifugin, reference compound], for which the “appearance / detection in plasma” value in “in vivo” was “identified by major peaks”. For the same compound, the “activity against ROS (in words)” value in series [1] is “no activity”. Moreover, the “activity against nitric oxide (in words)” value in series [2] is recorded as “no activity”.
On to `CC1(C)[C@@H](O)CC[C@]2(C)[C@H]3C(=O)C=C4[C@@H]5C[C@@](C)(C(=O)O)CC[C@]5(C)CC[C@@]4(C)[C@]3(C)CC[C@@H]12` [Glycyrrhetic acid, glycyrrhetic acid, reference compound], for which the “appearance / detection in plasma” value in the series “in vivo” is given as “identified by major peaks”. Besides, the “activity against ROS (in words)” value in series [1] is recorded as “no activity”. Further, the “activity against nitric oxide (in words)” value in series [2] is recorded as “no activity”.
With `O=C1CC(c2ccc(O)cc2)Oc2cc(OC3OC(C(=O)O)C(O)C(O)C3O)ccc21` (centres unmarked) [Liquiritigenin 7-O-glucuronide, liquiritigenin 7-O-glucuronide], in “in vivo” (rat plasma), the AUC(0-t) turned out to be 223 ng·h/mL, the Cmax was found to be 35.6 ng/mL, the half-life is 2.72 h and the tmax worked out at 2.00 H. The “anti-ROS activity of glucuronide compared with its aglycone” value in series [1] (serially-diluted concentrations, Figure 4) is on record as “completely identical to that of their aglycones”. Further, in series [1], the “Antioxidant activity, IC50, Hydrogen Peroxide” value was found to be 0.765 µg/mL.
On to `C[C@]12C=CC(=O)C=C1CC[C@@H]1[C@@H]2[C@@H](O)C[C@@]2(C)[C@H]1CC[C@]2(O)C(=O)CO` [PDN, Prednisolone], for which the “increase in ear thickness in a 24 h period compared with that prior to injection” value in series [3] stood at 123%.
For the compound `O=C1C[C@@H](c2ccc(O)cc2)Oc2cc(O)ccc21` [liquiritigenin], in “in vivo” (setting [4]), the “plasma concentration after β-glucuronidase treatment” value was 200 ng/mL and the “plasma concentration before β-glucuronidase treatment” value is on record as 0.873 ng/mL. Besides, the “activity against ROS (in words)” value in series [1] is listed as “strong activity”.
